Entries after “also recorded” stand apart in the source; their conditions may differ.
Columns and labels:
[1] = system: 2H11 cells; assay: 2H11 endothelial MATRIGEL tube formation assay; assay type: cell-based, mouse; conditions: for inhibition of SFRP2 stimulated endothelial tube formation: SFRP2 stimulated 2H11 cells; for inhibition of VEGF stimulated endothelial tube formation: VEGF stimulated 2H11 cells
Text: The ability for tacrolimus to inhibit SFRP2 and VEGF stimulated 2H11 endothelial tube formation in vitro was studied in a MATRIGEL tube formation assay.

[2] = system: SVR angiosarcoma cells; assay: SVR angiosarcoma cell tube formation assay; assay type: cell-based, mouse; conditions: for inhibition of SVR tube formation by sera compared to control mouse sera: sera at 1:100 dilution
Method: (§1) The tube formation properties of SFRP2 on MEC cells were evaluated using an endothelial cell tube formation assay. ECMATRIX (Chemicon) was thawed, diluted and solidified in a 96 well plate according to the manufactures instructions. 1×10^4 cells/well in 150 μl of DMEM (cellgro) with 10% FBS (HyClone) and a concentration range (3-3000 pM) of SFRP2 (US Biologicals) were seeded onto the matrix and returned to 37° C., 5% CO2 for 8 hours. Images were acquired using the Nikon Eclipse TS100 microscope at 4× magnification with a Nikon CoolPix 995 digital camera. Results were quantified by counting the number of branch point. To evaluate whether tacrolimus inhibits SFRP2 induced tube formation, MEC cells were treated as above with SFRP2 30 nM with and without tacrolimus (1 μM-100 uM) for 8 hours and branch points were determined as described above. To evaluate whether inhibitors of SFRP2-mediated angiogenesis would inhibit the growth of SVR tumor cells, SVR cells were treated with tacrolimus (1 μM-100 μM) or with a rabbit polyclonal antibody to SFRP-2 (H-140) (Santa Cruz Biotechnology, Santa Cruz, Calif., catalogue 4 sc-13940) in the tube formation assay.
As a further test of the contribution of SFRP2 to endothelial tube formation, it was evaluated whether loss of function of SFRP2 would inhibit SVR angiosarcoma tube formation. This was studied two different ways, first with a blocking antibody to SFRP2, and then using siRNA to SFRP2. SVR cells were plated in MATRIGEL in a tube formation assay and treated with a polyclonal antibody to SFRP2. […] After 72 h of transfection using LIPOFECTAMINE™ RNAiMAX Transfection reagent (Invitrogen) according to the manufacturer's protocol, cells were harvested and ready for Western blot analyses and tube formation assay.
Monoclonal antibodies for the epitope corresponding to AbB (AA202-AA220) were prepared. […] The angiosarcoma cells were suspended in 150 μl of antibody containing growth media for 90 different samples and control media, After 6 hours, pictures were taken and the number of branch points for each well was counted. […]

[3] = system: MMTV-neu transgenic mouse tumors; assay: MMTV-neu transgenic mouse tumor growth; assay type: in vivo
Method: In a second study, MMTV-neu transgenic mice were treated with tacrolimus 3 mg/kg/daily or no treatment. Treatment began when tumors were palpable and continued for 21 days. Tumor volumes were monitored with serial ultrasounds. A two-tailed T-test was used to determine the difference between growth rates of the tumors between treated and non-treated tumors.

[4] = system: SVR angiosarcoma xenografts; assay: SVR angiosarcoma xenografts in nude mice; assay type: in vivo; conditions: for growth of SVR angiosarcoma xenografts: nude mice
Method: To test the ability of tacrolimus to inhibit angiogenesis in vivo, SVR mouse angiosarcoma cells (0.5×10^6) were injected into the flank of 6-week-old nude male mice obtained from Charles River Breeding Laboratories. Treatment was initiated on the day after inoculation. Mice received 3 mg/kg/daily tacrolimus or vehicle control suspended in 20% Intralipid (Baxter Healthcare, Deerfield, Ill.) in a total volume of 0.3 ml intraperitoneally (i.p.), and were treated daily for 19 days. Serial caliper measurements of perpendicular diameters were used to calculate tumor volume using the following formula: (shortest diameter)^2×(longest diameter)×0.52. Differences in tumor volume over time were analyzed with a two way ANOVA. A P value of ≦0.05 indicated a statistically significant reduction in tumor growth of the treated group compared to the control group. […] Treatment with tacrolimus reduced mean tumor volume by 46% at day 19 (589±129 mm^3 vs 315±93 mm^3, two-way ANOVA, p=0.04, FIG. 26).
The ability of a monoclonal antibody recognizing SFRP2 to inhibit tumor growth in vivo was tested in a nude mouse assay. The SFRP2 MAb subclone 80.8.6 was first tested with SVR angiosarcoma xenografts. Six week old nude mice were injected with 1×10^6 SVR angiosarcoma cells. The day after injections treated mice received SFRP2 MAb(80.8.6) 4 mg/kg i.v. twice weekly (n=5), and controls received equal volumes of buffer. At day 14 there was a 65% decrease in tumor volume (*p=0.03, two-tailed student's t-test) (FIG. 34).

[5] = system: MEC cells; assay: Trypan blue uptake (cytotoxicity) in MEC cells; assay type: cell-based, mouse; conditions: tacrolimus-treated MEC cells
Method: (§2) To evaluate whether tacrolimus inhibits SFRP2 induced tube formation, MEC cells were treated as above with SFRP2 7 nM with and without tacrolimus 100 uM for 8 hours and branch points were determined as described above. To evaluate whether tacrolimus reversed established tubes, cells were incubated with SFRP2 7 nM for 8 hours and then BSA or tacrolimus 100 μM was added to SFRP2 treated cells for an additional 4 hours, and then the number of branch points were counted. […] Tacrolimus was not cytotoxic to MEC cells, as only 5% of tacrolimus-treated cells took up trypan blue dye (data not shown).

[6] = system: mouse endothelial cells (MEC); assay: Endothelial cell tube formation assay, MEC cells; assay type: cell-based; conditions: for inhibition of SFRP2 induced tube formation: SFRP2 7 nM or 30 nM, tacrolimus 1 μM-100 uM, 8 hours
Method: The tube formation properties of SFRP2 on mouse endothelial cells (MEC) cells were evaluated using an endothelial cell tube formation assay. ECMATRIX (Chemicon) was thawed, diluted and solidified in a 96 well plate according to the manufacturer's instructions. 1×10^4 cells/well in 150 μl of DMEM (celigro) with 10% FBS (HyClone) and a concentration range (7-7000 pM) of SFRP2 (US Biologicals) were seeded onto the matrix and returned to 37° C., 5% CO2 for 8 hours. Images were acquired using the Nikon Eclipse TS100 microscope at 4× magnification with a Nikon CoolPix 995 digital camera. Results were quantified by counting the number of branch points.
as §2, §1

[7] = system: MDA-MB-231 breast cancer xenografts; assay: MDA-MB-231 breast cancer xenografts in nude mice; assay type: in vivo; conditions: 4 mg/kg i.v. twice weekly
Method: The SFRP2 MAb subclone 80.8.6 was next tested with MDA-MB-231 breast cancer xenografts. Six week old female nude mice were injected with 1×10^6 MDA-MB-231 cells. After 4 weeks, when tumors were palpable, mice received SFRP2 MAb (80.8.6) 4 mg/kg i.v. twice weekly (n=12), and controls received equal volumes of buffer. At day 8 the median tumor volume for controls was 1200 mm^3, and for SFRP2 MAb treated mice was 580 mm^3, which represents a 52% decrease in tumor volume (p=0.04, two-tailed student's t-test).

[8] = tacrolimus 3 mg/kg/daily i.p., day 19

C=CC[C@@H]1/C=C(\C)C[C@H](C)C[C@H](OC)[C@H]2O[C@@](O)(C(=O)C(=O)N3CCCC[C@H]3C(=O)O[C@H](/C(C)=C/[C@@H]3CC[C@@H](O)[C@H](OC)C3)[C@H](C)[C@@H](O)CC1=O)[C@H](C)C[C@@H]2OC [tacrolimus]
inhibition of SFRP2 stimulated endothelial tube formation [1]: inhibits SFRP2-induced mouse endothelial cell tube formation | inhibition of SFRP2 stimulated endothelial tube formation ([1]; listed as Tacrolimus): inhibited endothelial tube formation | inhibition of VEGF stimulated endothelial tube formation [1]: inhibits VEGF-induced mouse endothelial cell tube formation | inhibition of VEGF stimulated endothelial tube formation ([1]; listed as Tacrolimus): inhibited endothelial tube formation | inhibition of SVR angiosarcoma tube formation [2]: inhibited by tacrolimus; also recorded: inhibits tube formation in SVR angiosarcoma cells | growth rate of MMTV-neu tumors ([3]; mouse, in vivo): inhibits the growth rate | signs of toxicity (diarrhea, infection, lethargy, weight loss) ([3]; tacrolimus 3 mg/kg/daily, 21 days): no signs of toxicity | reduction in tumor growth rate ([3]; tacrolimus 3 mg/kg/daily, day 21): 59% | growth of SVR angiosarcoma xenografts [4]: effective at suppressing the growth; also recorded: inhibits the growth | signs of toxicity (diarrhea, infection, lethargy, weight loss) ([4]; tacrolimus 3 mg/kg/daily i.p., 19 days): no signs of toxicity | mean tumor volume [4, 8]: 315±93 mm^3 | reduction of mean tumor volume [4, 8]: 46% | treated cells that took up trypan blue dye [5]: 5% | inhibition at 1 µM ([6]; Mus musculus, Endothelial cell, tacrolimus 1 μM, SFRP2 30 nM, read-out: inhibition of SFRP2 induced tube formation): 64% | reversal of established SFRP2-induced tubes ([6]; SFRP2 7 nM 8 hours, then tacrolimus 100 μM for 4 hours): reversed SFRP2-induced tube formation; also recorded: reverses SFRP2-induced mouse endothelial cell tube formation | inhibition of SFRP2 induced tube formation [6]: inhibits SFRP2-induced mouse endothelial cell tube formation; also recorded: inhibits tube formation in SFRP2-induced MEC cells | inhibition of SFRP2 induced tube formation ([6]; listed as Tacrolimus): inhibited SFRP2 induced tube formation

AbB: sera from mouse immunized against SFRP2 epitope amino acids AA202-AA220 (EITYINRDTKIILETKSKTC)
inhibition of SVR tube formation by sera compared to control mouse sera [2]: inhibited SVR tube formation; also recorded: greatest inhibition

AbC: sera from mouse immunized against SFRP2 epitope amino acids AA270-AA295 (ITSVKRWQKGQREFKRISRSIRKLQC)
inhibition of SVR tube formation by sera compared to control mouse sera [2]: inhibited SVR tube formation; also recorded: greatest inhibition

B1: SFRP2 MAb (80.8.6): monoclonal antibody produced by hybridoma cell line UNC 68-80 (subclone 80.8.6), ATCC PTA-11762; VH SEQ ID NO:13, VL SEQ ID NO:15 (antibody, V domains shown)
VH: QVQLQQPGAELVQPGASVMLSCKASGFTFTRYWWHWVRQTPGRGLEWIGRIDPNSGTTRFIEKFKTKATLTVDKPSSTAYMHLSSLTSEDSAVYYCARWGPYYGYAMDYWGPGTSVTVSS
VL: QIVLTQSPAIMSASPGQKVTITCSASSSVTYMHWYQQKLGSSPKLWIYDTSRLAPGSPARFSGSGSGTSYSLTISSMETEDAASYFCHQWSTYPPTFGTGTKLEIQ
modifications: Heavy chain variable region sequence; Light chain variable region sequence
toxicity or weight loss ([4]; 4 mg/kg i.v. twice weekly): No toxicity or weight loss | decrease in tumor volume ([4]; 4 mg/kg i.v. twice weekly, day 14): 65% | growth of SVR angiosarcoma xenografts [4]: inhibits the growth | toxicity or weight loss [7]: No toxicity or weight loss | decrease in tumor volume ([7]; day 8): 52% | median tumor volume ([7]; day 8): 580 mm^3

Reference: patent US9073982B2, “Targets for regulation of angiogenesis” (The University of North Carolina at Chapel Hill, priority 2008, dated 2015)
